Where two headings read alike, the source gives them in different places.
Experiments:
Wild-type (WT) HIV-1 RT = biological target: T1, Wild-type (WT) HIV-1 RT (Human immunodeficiency virus type 1 group M subtype B, UniProt P03367); experiment: Inhibition of HIV-1 RT DNA synthesis by 6-modified-AZG analogs; assay type: biochemical; details: DNA/DNA template/primer, 200 nM WT RT, 40 min
T1 construct: HIV-1 RT (xxLAI background); inferred from vector p6HRT-PROT and the cited metal chelate purification; made in house; host or cells: bacteria (p6HRT-PROT expression vector)
Experimental: Wild-type (WT) HIV-1 RT was purified as described previously (1, 2). […] The 214 nucleotide (nt) DNA template, corresponding to the HIV-1 PBS region, was prepared as described previously (4). Reactions were initiated by the addition of 200 nM WT RT, incubated for 40 min at 37° C. and then quenched using 20 μL of gel loading buffer (98% deionized formamide containing 1 mg/mL each of bromophenol blue and xylene cyanol). […] Gels were analyzed using phosphorimaging with a GS525 Molecular Imager and Quantity One Software (Biorad Laboratories, Inc., Hercules, Calif.).

151M complex RT = experiment: Studies with purified RT: inhibition of 151M complex RT; assay type: biochemical, HIV-1
HIV-1/LAI = experiment: Anti-HIV-1 assay in PBM cells; assay type: cell-based; details: Tables 2-4, n = 3 for the MP prodrugs
Experimental: Stock solutions (20-40 mM) of the compounds were prepared in sterile DMSO and then diluted to the desired concentration in growth medium. Cells were infected with the prototype HIV-1LAI at a multiplicity of infection of 0.01. Virus obtained from the cell supernatant was quantified on day 6 after infection by a reverse transcriptase assay using (rA)n·(dT)12-18 as template-primer. […] The antiviral EC50 and EC90 were obtained from the concentration-response curve using the median effective method described previously (see Chou T.-C. & Talalay P. Adv. Enzyme Regul. 1984, 22, 27-55; Belen'kii M. S. & Schinazi R. F. Antiviral Res. 1994, 25, 1-11).

PBM cells = experiment: Cytotoxicity assay in PBM cells; assay type: cell-based, human; details: Tables 2-4; read-out: PBM IC50
CEM cells = experiment: Cytotoxicity assay in CEM cells; assay type: cell-based, human; details: Tables 2-4; read-out: CEM IC50
Vero cells = experiment: Cytotoxicity assay in Vero cells; assay type: cell-based; details: read-out: Vero IC50; Tables 2-4
WT (LAI) HIV-1 = experiment: Single cycle assay in P4/R5 cells, WT HIV-1; assay type: cell-based
Experimental: (§1) In a 96-well plate, two- or three-fold serial dilutions of an inhibitor were added to P4/R5 cells in triplicate. […] At 48 h post-infection, a cell lysis buffer and luminescent substrate (Gal-Screen; Tropix/Applied Biosystems) was added to each well, and relative light unit values were determined using a luminometer (ThermoLabSystems, Waltham, Mass.).
(§2) Virus stocks were prepared as described above. Drug susceptibility assays were performed using the single- and multiple-replication-cycle assays also described above.

[1] = tested on: HIV-1 AZT2 (D67N/K70R/T215F/K219Q); experiment: microbe, parasite or virus in culture; assay type: cell-based
Experimental: as §1, §2

[2] = tested on: HIV-1 AZT3 (M41L/L210W/T215Y); experiment: microbe, parasite or virus in culture; assay type: cell-based
Experimental: as §1, §2

[3] = tested on: HIV-1 AZT7 (M41L/D67N/K70R/T215F/K219Q); experiment: microbe, parasite or virus in culture; assay type: cell-based
Experimental: as §1, §2

[4] = tested on: HIV-1 AZT9 (M41L/D67N/K70R/L210W/T215Y/K219Q); experiment: microbe, parasite or virus in culture; assay type: cell-based
Experimental: as §1, §2

HIV-1 K65R = experiment: microbe, parasite or virus in culture; assay type: cell-based
Experimental: as §1, §2

HIV-1 L74V = experiment: microbe, parasite or virus in culture; assay type: cell-based
Experimental: as §1, §2

HIV-1 M184V = experiment: microbe, parasite or virus in culture; assay type: cell-based
Experimental: as §1, §2

[5] = tested on: HIV-1 Q151Mc (A62V/V75I/F77L/F116Y/Q151M); experiment: microbe, parasite or virus in culture; assay type: cell-based; details: mean ± standard deviation
Experimental: as §1, §2

[6] = tested on: HIV-1 T69SSS (M41L/T69SSS/L210W/T215Y); experiment: microbe, parasite or virus in culture; assay type: cell-based; details: Human immunodeficiency virus 1, P4/R5, P4/R5 cells, mean ± standard deviation
Experimental: as §1, §2

NRTI-resistant HIV-1 = experiment: Cross-resistance against a broad panel of NRTI-resistant HIV-1; assay type: cell-based
[7] = Human immunodeficiency virus 1, P4/R5 cells, mean ± standard deviation

[N-]=[N+]=N[C@H]1C[C@H](n2cnc3c(N)nc(N)nc32)O[C@@H]1COP(=O)(O)OP(=O)(O)OP(=O)(O)O [RS-667-TP]
potency of inhibition of HIV-1 RT DNA synthesis (rank order) (Wild-type (WT) HIV-1 RT): most potent analog | potency against 151M complex RT (151M complex RT): less potent than AZG-TP

CCOC(=O)[C@H](C)NP(=O)(OC[C@H]1O[C@@H](n2cnc3c(N)nc(N)nc32)CC1N=[N+]=[N-])Oc1ccccc1 (stereo partly shown) [RS-788]
EC50 (HIV-1/LAI; read-out: HIV EC50): 9 nM | EC90 (HIV-1/LAI; read-out: HIV EC90): 110 nM | IC50 (PBM cells): 38300 nM | IC50 (CEM cells): 30400 nM | IC50 (Vero cells): > 100000 nM | fold more potent against WT HIV-1 compared to either RS-667 or RFS-457 (WT (LAI) HIV-1): ~10 fold | EC50 (WT (LAI) HIV-1; Human immunodeficiency virus 1, P4/R5, read-out: EC50 WT (LAI), P4/R5 cells, mean ± standard deviation): 120 nM | EC50 (WT (LAI) HIV-1; read-out: EC50 WT (LAI), P4/R5 cells, mean ± standard deviation): 118 ± 60 nM | Fold-change versus WT, AZT2 ([1]; EC50 mutant / EC50 WT): (2.3) fold | EC50 [1, 7]: 274 ± 70 nM | Fold-change versus WT, AZT3 ([2]; EC50 mutant / EC50 WT): (1.6) fold | EC50 [2, 7]: 189 ± 20 nM | Fold-change versus WT, AZT7 ([3]; EC50 mutant / EC50 WT): (2.3) fold | EC50 [3, 7]: 270 ± 50 nM | Fold-change versus WT, AZT9 ([4]; EC50 mutant / EC50 WT): (2.1) fold | EC50 [4, 7]: 253 ± 90 nM | Fold-change versus WT, K65R (HIV-1 K65R; EC50 mutant / EC50 WT): (0.9) fold | EC50 (HIV-1 K65R; [7]): 106 ± 70 nM | Fold-change versus WT, L74V (HIV-1 L74V; EC50 mutant / EC50 WT): (0.6) fold | EC50 (HIV-1 L74V; [7]): 73 ± 20 nM | Fold-change versus WT, M184V (HIV-1 M184V; EC50 mutant / EC50 WT): (0.4) fold | EC50 (HIV-1 M184V; [7]): 48 ± 30 nM | EC50 ([5]; Human immunodeficiency virus 1, P4/R5, P4/R5 cells): 280 nM | EC50 ([5]; P4/R5 cells): 277 ± 70 nM | EC50 [6]: 440 nM | cross-resistance profile compared to AZD, AZG or AZT (NRTI-resistant HIV-1): superior cross-resistance profile

Reference: US8815829B2, “3′-azido purine nucleotide prodrugs for treatment of viral infections” (priority 2008, dated 2014)
